# Assay results as given in patent US6248718A, “Lesion-directed dry dosage forms of antibacterial agents for the treatment of acute mucosal infections of the oral cavity” (priority 1999, dated 2001).
# Experiments:
# bacteria in human saliva = assay: Inhibition of bacterial growth in human saliva in vitro (Example IV); assay type: cell-based
# Protocol: For this study, five healthy adult volunteers, three men and two women, were asked to refrain from drinking and eating for two hours after breakfast. At the end of two hours, about five (5) ml of saliva was obtained from the oral cavity of each volunteer. Aliquots of 0.1 ml of saliva were pipetted immediately from each saliva sample and spread over the surface of two 5% sheep blood agar plates with a sterile plastic loop. One inoculated blood agar plate was incubated in an aerobic atmosphere containing 5% CO2, and the other anaerobically at 37° C. for 18 hours, as untreated controls.
# Aliquots of 0.2 ml of the saliva from each volunteer's sample were pipetted into sterile test tubes, and labeled from No. 2 to No. 13. Five equal doses of dry powder of the USP grade penicillin G potassium salt, 200 mg each, were weighed and put into five sterile test tubes, all labeled No. 1. The dry powder of antibiotic was dissolved in 0.4 ml saliva obtained from each of the five volunteers to constitute an initial concentration of antibiotic concentration of […] in saliva. An aliquot of 0.2 ml of the saliva antibiotic solution was pipetted from tube No. 1 into tube No. 2. After having been thoroughly mixed, 0.2 ml of the content in tube No. 2 was pipetted to tube No. 3, and so forth continuously in succession to make a serial double dilution of penicillin G potassium solutions in saliva through tube No. 13. Finally, the test tubes contained different concentrations of penicillin G potassium in the saliva of five volunteers, as follows.
# The mixtures of antibiotic and saliva in the test tubes were incubated at 37° C. One hour later, an aliquot of 0.1 ml was pipetted from the content of each tube, first dropped in the center of a blood agar plate and then spread to the periphery of the plate surface. The plates were incubated aerobically at 37° C. with 5% carbon dioxide in the atmosphere for 18 hours and were examined for bacterial growth.
# [1] = test system: Staphylococcus aureus (ATCC 29213); assay: MIC for standard strain used in saliva antibiotic assay (Examples I, II); assay type: cell-based; settings: nutrient broth, 37° C., 18 hours
# From the text: The final concentrations of oxytetracycline in the control standard nutrient broth were 0.25 mcg/ml, 0.5 mcg/ml, 1.0 mcg/ml, 2.0 mcg/ml, 4.0 mcg/ml, and 8.0 mcg/ml. The final dilutions of saliva sample were 1/50,000, 1/100,000, 1/200,000, 1/400,000, 1/800,000 and 1/1,600,000 for the peak concentration test tubes and 1/4,000. 1/8,000, 1/16,000 and 1/32,000 for the trough concentration test tubes. The Staphylococcus aureus (ATCC 29213) was also used as the standard test microorganism.
# [2] = test system: Gram-negative bacilli (Salmonella, Shigella, most Escherichia coli strains, all Proteus mirabilis strains and most Bacteroides strains); settings: in vitro; cited from earlier work
# [3] = test system: bacteria in saliva of healthy volunteers; assay: Inhibition of bacterial growth in the saliva in vivo (Example V); settings: in theory, 0.1 ml saliva
# Protocol: Five healthy adult volunteers, three men and two women, were asked to refrain from drinking or eating for two hours after breakfast. At the end of two hours, an aliquot of 0.1 ml of saliva was pipetted from the mouth of each volunteer and spread over the surface of a sheep blood agar plate with a sterile plastic loop. The inoculated blood agar plate was incubated in an aerobic atmosphere containing 5% CO2 as pre-medication control. Then 100 mg, 50 mg, 20 mg, 10 mg and 2 mg of penicillin G potassium dry powder, USP grade, were placed in the right buccal pouch with a spatula between the cheek and the lower gum of each volunteer, respectively. The volunteers were asked to retain the dissolved penicillin powder at the site of medication as concentrated as possible, not to be diluted by saliva from other parts of the mouth for one hour.
# At the end of one hour, 0.1 ml of saliva from each volunteer was pipetted from the right buccal pouch where the medication was placed, and inoculated and spread onto the surface of a sheep blood agar plate. The inoculum was spread with a sterile plastic loop.
# [4] = intravenous injection of 500 mg penicillin G; cited from earlier work
# [5] = earlier treatments of oral infections / aphthous ulcers; cited from earlier work
# [6] = test system: Staphylococcus aureus (ATCC 29213); settings: standard strain; cited from earlier work
# [7] = test system: Staphylococcus aureus ATCC 29213; assay: MIC for standard strain used in saliva antibiotic assay (Examples VII-IX); assay type: cell-based; settings: nutrient broth, 37° C., 18 hours
# Protocol: Each filtered mixture in test tube was inoculated with 0.1 ml of a 1:1,000 dilution of a 12 hour broth culture of Staphylococcus aureus ATCC 29213.
# A row of 6 test tubes each containing 2 ml of nutrient broth with decreasing concentrations of penicillin G potassium from 6.2 to 0.16 mcg/ml, using a serial double dilution method described in a., was prepared and similarly inoculated with 0.1 ml broth culture of Staphylococcus aureus ATCC 29213 as the standard.
# All test tubes were incubated at 37° C. for 18 hours and observed for bacterial growth against an inoculated broth containing neither antibiotic nor saliva samples.
# In this study, the drug powder was suspended in one teaspoonful of water and swallowed by the test subjects two hours after breakfast, followed by drinking an 8 Oz. glass of water. The test subjects refrained from drinking or eating for the next three hours. Six samples of saliva were collected from each subject at 30-minute intervals in succession in the next three hours. An aliquot of 0.2 ml from each saliva sample was transferred to 3.8 ml of nutrient broth. The mixture of the latter was forced to pass a bacterial filter. Two (2) ml of the bacteria-free filtrate was pipetted out into a sterile test tube and inoculated with 0.1 ml of a 1:1,000 dilution of a 12 hours broth culture of Staphylococcus aureus ATCC 29213 and incubated at 37° C. for 18 hours. […]
# [8] = Local concentration of penicillin in saliva after a troche containing 50 mg penicillin G; assay type: in vivo, human
# Protocol: The local concentration of penicillin in the saliva was determined as follows. […] This loculated pocket of saliva was not swallowed and was not to be diluted with excess saliva from other parts of the mouth for one hour. Two samples were taken for assay to determine the peak and trough local concentrations of penicillin during the one-hour duration of medicinal treatment. At the time when the troche was completely dissolved and one hour later, aliquots of 10 microliters were pipetted from this pocket of saliva solution at the site of medication, representing the peak level and the trough level of antibiotic concentration, and transferred into 10 ml of distilled water to make a 1:1.000 dilution and into 1 ml of distilled water to make a 1:100 dilution, respectively. The diluted saliva antibiotic solutions were passed through a sterile bacteria-filter to remove any bacterial or fungal contaminants of the oral flora.
# For determination of the peak concentration, 1 ml of the bacteria-free filtrate was further diluted with 9 ml of nutrient broth to achieve a 1:10,000 dilution of the saliva. Then a serial two-fold dilution was made of this 1:10,000 diluted saliva sample with an equal volume of nutrient broth in a roll of test tubes to obtain a series of 1 ml aliquots of nutrient broth in which the saliva was diluted to 20,000, 40,000, 80,000, 160,000, 320,000, 640,000, 1,280,000 and 2,560,000 folds respectively. […] Thus the final dilutions of the saliva sample were in the range of 40,000 to 5,120,000 folds.
# For determining the trough concentration, the entire 1 ml of the 1:100 diluted saliva filtrate was used to make the serial dilutions so that the final dilutions of saliva sample were in the range of 4,000 to 256,000 folds in the final test culture.
# As control standards, a series of test tubes containing 1 ml of nutrient broth with varying concentrations of penicillin G potassium salt ranging from 0.1 units to 10 units/ml were similarly mixed with an equal volume of nutrient broth freshly inoculated with the standard tubes of Staphylococcus aureus. Both the test and control standard tubes were incubated at 37° C. for 18 hours. Among the test tubes showing no gross evidence of bacterial growth, the one containing the highest dilution of saliva and the one containing the least amount of penicillin G were considered as having the identical concentration of penicillin, i.e. the MIC of the staphylococcus aureus.
# [9] = Topical treatment of patients with aphthous ulcers with troches; assay type: in vivo, human
# Protocol: Patients with aphthous ulcers were advised to brush their teeth to rid them of food residues, and to rinse their mouths with water prior to initiating treatment. One penicillin/magnesium stearate troche was placed in the patients mouths directly over the ulcerated lesion. The troche was dissolved or disintegrated in a minimum amount of saliva directly over the ulcer in no more than 15 minutes, preferably in about 8 to about 12 minutes. The patients were advised to keep the ingredients of the disintegrated troche at the site of the lesion as long as possible. Food and beverages were avoided for one hour after each treatment. If multiple aphthous ulcers were present, only one troche is required for the treatment of a cluster of small ulcers. The topical treatments were conducted 4 times daily, for example, after breakfast, after lunch, after dinner and before bed time for no more than 4 days. […] The burning sensation lessened with subsequent applications.
# For instance, the first sign of healing is usually the fading of the hyperemic zone at the periphery of the ulcer and the lessening of edema at the base of the ulcer. The membrane covering the ulcer becomes thinner, more translucent, more pearly white instead of a grayish-yellowish white prior to the application and contract with the troche. […]
SMILES,"bactericidal effect (bacteria in human saliva; 1 mg/ml, one hour's incubation)","MIC (bacteria in human saliva; Homo sapiens, read-out: MIC / concentration inhibiting growth of oral flora in saliva) [µg/mL]",MIC [1] [unit/ml],cut-off minimum inhibition concentration at which many Gram-negative bacilli fall into sensitive category [2] [µg/mL],theoretical dose sufficient for initial topical MIC concentration of 2 mg/ml [3] [mg],average peak blood level [4],"MIC / concentration inhibiting growth of oral flora in saliva (bacteria in human saliva; in vitro, aerobic) [mg/mL]",effectiveness of treatment [5],known minimum inhibitory concentration (MIC) [6],concentration at which bacteria grew to full turbidity [7] [µg/mL],initial concentration at the ulcer ([8]; assuming troche is dissolved in 0.1 ml of saliva),"local trough concentration in saliva ([8]; human, in vivo, 60 min)","concentration at 1 h ([8]; human, saliva, 50 mg, 50 mg troche, end of one hour, read-out: local trough concentration in saliva) [µg/mL]",adverse reactions ([9]; 4 days of penicillin medication),state of ulcer membrane ([9]; after 4 days of penicillin medication)
CC1(C)S[C@@H]2[C@H](NC(=O)Cc3ccccc3)C(=O)N2[C@H]1C(=O)O [penicillin G],"not ""bactericidal"" within one hour's incubation time",2000,1,≤ 740,0.2,16 mcg/ml and about 16 mcg/ml and about 26 units/mi,–,–,–,–,–,–,–,–,–
CC1(C)S[C@@H]2[C@H](NC(=O)Cc3ccccc3)C(=O)N2[C@H]1C(=O)O [penicillin],–,–,–,–,–,–,2,ineffective,0.25-2 units/mi,≤ 0.37,up to 500 mg/ml,"about 12,000 Units per 1 ml saliva",~7500,no observed adverse reactions of stomatitis or discoloration of the tongue,"only remnants of a thin pearly whitish membrane remain, if any"
